Experimental data published in patent US10611764B2 (Wisconsin Alumni Research Foundation, priority 2017, dated 2020).
Where a chain is given by its changes, count along the chain named.

Assays:
[1] = molecular target: T1, mouse AHR (mAHR B1-allele) (Mus musculus, UniProt P30561, M589L/N533S/P471L); experiment: cell-based
T1 sequence (P30561 10-805 P471L/N533S/M589L): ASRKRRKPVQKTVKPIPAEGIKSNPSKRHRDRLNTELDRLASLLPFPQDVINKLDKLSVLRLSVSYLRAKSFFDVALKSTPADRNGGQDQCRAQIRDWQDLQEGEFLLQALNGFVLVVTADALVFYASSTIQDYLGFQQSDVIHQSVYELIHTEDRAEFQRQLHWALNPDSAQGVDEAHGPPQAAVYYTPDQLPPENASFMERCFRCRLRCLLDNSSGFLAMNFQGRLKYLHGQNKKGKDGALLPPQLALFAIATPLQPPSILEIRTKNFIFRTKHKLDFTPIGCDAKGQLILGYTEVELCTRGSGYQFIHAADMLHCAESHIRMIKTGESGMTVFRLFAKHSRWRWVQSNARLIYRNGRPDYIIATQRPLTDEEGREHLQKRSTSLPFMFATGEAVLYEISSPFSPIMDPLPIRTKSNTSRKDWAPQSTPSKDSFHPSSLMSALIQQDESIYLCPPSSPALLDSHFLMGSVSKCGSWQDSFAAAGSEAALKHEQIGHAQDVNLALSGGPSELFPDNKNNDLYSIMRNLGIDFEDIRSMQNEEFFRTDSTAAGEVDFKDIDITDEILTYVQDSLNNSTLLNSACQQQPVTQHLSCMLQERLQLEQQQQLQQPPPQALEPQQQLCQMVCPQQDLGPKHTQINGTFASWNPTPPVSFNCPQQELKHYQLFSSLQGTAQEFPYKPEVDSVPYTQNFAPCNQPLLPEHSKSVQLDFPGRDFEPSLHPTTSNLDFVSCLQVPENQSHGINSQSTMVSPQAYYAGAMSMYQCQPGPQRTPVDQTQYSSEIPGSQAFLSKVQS
Procedure: The wild type and mutant mAHR were cloned into the XhoI/SalI cloning sites of pTARGET (Promega, Madison, Wis.) using routine PCR and molecular cloning procedures using the pSport-mAHR plasmid (PL65) as template (Dolwick, Swanson et al. 1993). For recombinant expression of mAHR, COS-1 cells were cultured in 6 cm dishes and transfected with 2 μg of wild-type or mutant mAHR expression vector. Twenty-four hours after transfection, cells were collected, and the whole cell extracts were prepared by celLytic M reagent (Sigma-Aldrich, St Louis, Mo.). 100 μg of whole cell extract was analyzed by western blot using antibodies that specifically recognize the mAHR (bear-2) and β-actin (Sigma).
COS-1 cells were cultured in 96-well plates and transiently transfected with pTarget vector containing the expression cassette of wild-type or mutant mAHR, or empty vector (3 ng), together with pGudLu6.1 DREs-driven luciferase reporter vector (14 ng) (Han, Nagy et al. 2004) and TK-renilla luciferase vector (3 ng) (Invitrogen, Carlsbad Calif.). […] The expressed luciferase activity was measured by ENSPIRE plate reader (Perkin Elmer, USA). Data analysis and simulation of dose response curves were performed using GraphPad Prism 5 (GraphPad software Inc., La Jolla, Calif.). The experiments were performed in triplicate and repeated at least three times. Representative results of one repeat are shown as mean±SEM.

mAHR Q377A mutant = molecular target: T2, mAHR Q377A mutant (Mus musculus, UniProt P30561, Q377A); experiment: Luciferase reporter gene assay, mutant mAHR Q377A in COS-1 cells; type: cell-based; settings: relative to WT mAHR
T2 construct: expressed in transfected cells; host or cells: COS-1
T2 sequence (P30561 10-805 Q377A limits assumed): T1 sequence (P30561 10-805 P471L/N533S/M589L) with Q368A, L462P, S524N, L580M

mAHR H285A mutant = experiment: Luciferase reporter gene assay, mutant mAHR H285A in COS-1 cells; type: cell-based, mouse; settings: relative to WT mAHR
[2] = tested on: Salmonella typhimurium tester strains (TA97a, TA98, TA100, and TA1535) and Escherichia coli strain (WP2 uvrA pKM101); experiment: Ames screening; settings: with and without S9, 7.8-250 ng/well
Procedure: The Ames screening detects both frameshift and base-pair substitution mutations using 4 Salmonella typhimurium tester strains (TA97a, TA98, TA100, and TA1535) and 1 Escherichia coli strain (WP2 uvrA pKM101). Strains TA97a and TA98 detect frameshift mutations, and TA100, TA1535, and WP2 uvrA pKM101 detect base-pair substitution mutations. This scaled-down Ames test uses minimal compound, is conducted with and without metabolic activation (S9 fraction), and uses multiwell plates. The Ames screen for TEACOP 270 was tested in duplicate with strains TA97a, TA98, TA100, TA1535, and WP2 uvrA pKM101 in the presence and absence of a metabolic activation system (Aroclor™ 1254 induced rat liver S9 microsomal fraction) at 7.8, 15.5, 31, 62.5, 125, and 250 ng/well. Positive control compounds were used at 4 different concentrations to ensure the assay system was sensitive to known mutagenic compounds. DMSO was used as the vehicle control.

[3] = Solubility in commonly used (NMR) solvents; type: physicochemical

C1=Cc2c3ccccc3nc3nc4ccccc4c(c23)N1 [Compound 4]
EC50 [1]: 0.378 nM | fold lower measured activity than Compound 4 ([1]; purified sample largely contaminated by lipids, FIG. 5c): more than 10 fold | effect of Q377A mutation on AHR induction activity (mAHR Q377A mutant): barely affected | effect of H285A mutation on AHR induction activity (mAHR H285A mutant): drastically affected | mutagenicity (Ames test) [2]: No mutagenicity is detected | solubility in CDCl3 ([3]; TFA salt): good solubility | solubility ([3]; free base form): poor solubility | solubility in commonly used solvents (CDCl3, CD3OD, DMSO-d6, etc) ([3]; isolated material): very poor solubility
